Experimental data reported in US20260137795A1, “EXATECAN IMMUNOCONJUGATES” (Immunome, Inc., priority 2023, published 2026).
Structures can show the parent of a compound that is named as a salt.

Key:
[1] = Human liver microsome clearance (HLM CL); assay type: in vitro ADME; design: half-life: dose or concentration left out as unconfirmed; details: for half-life: human, microsomes; for HLM Cl T1/2: human liver microsome clearance, 60 min incubation, NADPH
Description: Working solution is prepared by adding 5 μL of compound and control stock solution (10 mM in dimethyl sulfoxide, DMSO) to 495 μL of acetonitrile (ACN) (intermediate solution concentration: 100 μM, 99% CAN and 1% DMSO. The appropriate concentrations of microsome working solutions are prepared in 100 mM potassium phosphate buffer. After reaction plates containing mixtures of compound and microsomes are pre-incubated at 37° C., for 10 min. […] of 2 mM of NADPH and 2 mM of MgCl2 solution is added to start the reaction. The final concentrations of incubation medium are as follows: microsome-0.5 mg protein/mL, test compound/control […], NADPH—1 mM, MgCl2—1 mM, acetonitrile 0.99%, DMSO 0.01%. Incubations are performed at 37° C., for 60 min. Samples are taken out at T0, T5, T15, T30, T45 and T60, which is added intermediately to the ice-cold stop solution (acetonitrile with 200) ng/ml of tobutamide and labetalol as internal standard) (125 μl), shaken for 10 min, centrifuged at 4000 rpm for 20 min at 4° C. Analytical plates are analyzed by LCMS.
Human liver microsome clearance assay assess metabolism by the cytochrome P450 system (phase I enzymes). These enzymes oxidize substrates by incorporating oxygen atoms into hydrocarbons, thus causing the introduction of hydroxyl groups, or N- O- and S-dealkylation of substrates and forming more polar products easier to be cleared. Human hepatocyte clearance assay measures more broadly the overall cellular metabolism of the test compound (phase I and phase II enzyme pathways). Phase II enzymes catalyze the conjugation reaction of xenobiotic metabolites and charged species, such as glutathione, sulfate, glycine, or glucuronic acid to form even more polar compounds for easier clearance.

[2] = Human hepatocyte clearance (HHEP CL); assay type: in vitro ADME; design: half-life: dose or concentration left out as unconfirmed; details: for half-life: both sexes, human; for HHEP Cl T1/2: human hepatocytes intrinsic clearance, 90 min incubation
Description: Suspensions of human hepatocytes (from 10 mixed gender human donors, final concentration 0.5×10^6 cell/mL) in Williams' E medium are incubated for 90 min with a test compound (0.90% acetonitrile and 0.10% DMSO, final concentration […]) and positive controls (7-Ethoxycoumarin, 7-Hydroxycoumarin, 0.90% acetonitrile and 0.10% DMSO, final concentration […]), with constant shaking at about 600 rpm at 37° C., in an incubator at 5% CO2 and 95% humidity. The total volume of incubation was 200 μL. A sample ([…]) is taken out at TO, 15, 30, 60 and 90 min, which is added intermediately to the ice-cold stop solution (acetonitrile with 200 ng/ml of tobutamide and labetalol as internal standard) (125 μl), and vortexed at 500 rpm for 10 min, centrifuged at 3220×g for 20 min at 4° C. Analytical plates are sealed and stored at 4° C., until LCMS analysis. Viability of hepatocytes at pre-incubation is determined to be 84.5%.

Jeko-1 = test: CTG assay of payloads (CellTiter-Glo cell viability); assay type: cell-based
Excerpt: The CTG assay is a method of determining the number of viable cells in culture based on quantitation of the ATP present, an indicator of metabolically active cells. The cell assay requires the addition of a single reagent, Cell Titer Glo, in which cells are lysed and generation of a luminescent signal is produced. The luminescent signal is proportional to the amount of ATP present. The amount of ATP is directly proportional to the number of cells present in culture. For our assay, cells are ensured to be in log-phase for either Jeko-1 or MDA-MB-468. Cells are transferred to 96 wells and treated with compounds in three-fold serial dilution starting from […] (10 points dilution), for 72 h. Cell viability is analyzed with CellTiter-Glo® Luminescent Cell Viability Assay (Promega) following manufactures' instruction. Percentage of viable cells in each compound concentration is determined by normalizing with the luminescence of vehicle control and plotted into percentage of viability versus dose response curve by nonlinear fit in GraphPad Prism software.

physchem = test: physchem; design: dose or concentration left out as unconfirmed; details: PAMPA
[3] = PAMPA (Parallel Artificial Membrane Permeability Assay); design: dose or concentration left out as unconfirmed; details: pH 7.4
[4] = AC-SINS self-interaction (antibody developability); assay type: physicochemical; details: FIG. 19
Description: Antibody developability was assessed by performing an AC-SINS assay and evaluating the potential for self-interaction.
An initial assessment of antibody developability was performed by AC-SINS to evaluate the potential for self-interaction (FIG. 19).

Compound	half-life [1] [min]	half-life ([2]; hepatocytes) [min]	IC50 (Jeko-1; Homo sapiens, JeKo-1, 72 h) [nM]	Papp (physchem; pH 5) [×10⁻⁶ cm/s]	Papp (physchem; pH 7.4) [×10⁻⁶ cm/s]	HLM Cl T1/2 [1] [min]	HHEP Cl T1/2 [2] [min]	IC50 (Jeko-1; 72 h) [nM]	half-life ([2]; hepatocytes in suspension, read-out: HHEP Cl T1/2) [min]	Papp [3] [×10⁻⁶ cm/s]	AC-SINS shift / self-interaction [4]
CC[C@@]1(O)C(=O)OCc2c1cc1n(c2=O)Cc2c-1nc1cc(F)c(C)c3c1c2[C@@H]([C@H](CCO)NC(C)C)CC3 (single isomer, unassigned) [Compound 14-92]	57	> 217	1.7	17.7	8.4						
CC[C@@]1(O)C(=O)OCc2c1cc1n(c2=O)Cc2c-1nc1cc(F)c(C)c3c1c2[C@@H]([C@@H](CCO)NC(C)C)CC3 (single isomer, unassigned) [Compound 14-93]	46	185	2.6	20.6	9.2						
CC[C@@]1(O)C(=O)OCc2c1cc1n(c2=O)Cc2c-1nc1cc(F)c(C)c3c1c2[C@H]([C@H](CCO)NC(C)C)CC3 (single isomer, unassigned) [Compound 14-94]	6.7	68	1.6	16.5	7.5						
CC[C@@]1(O)C(=O)OCc2c1cc1n(c2=O)Cc2c-1nc1cc(F)c(C)c3c1c2[C@H]([C@@H](CCO)NC(C)C)CC3 (single isomer, unassigned) [Compound 14-95]	29	85	1.7	12.7	6.6						
CC[C@@]1(O)C(=O)OCc2c1cc1n(c2=O)Cc2c-1nc1cc(F)c(C)c3c1c2[C@@H]([C@H](CCO)N(C)C)CC3 (single isomer, unassigned) [Compound 15-96]	96	> 217	0.52	16.7	15.6						
CC[C@@]1(O)C(=O)OCc2c1cc1n(c2=O)Cc2c-1nc1cc(F)c(C)c3c1c2[C@@H]([C@@H](CCO)N(C)C)CC3 (single isomer, unassigned) [Compound 15-97]	36	113	0.3	36.6	15.7						
CC[C@@]1(O)C(=O)OCc2c1cc1n(c2=O)Cc2c-1nc1cc(F)c(C)c3c1c2[C@H]([C@H](CCO)N(C)C)CC3 (single isomer, unassigned) [Compound 15-98]	6.7	78	0.25	27	11.3						
CC[C@@]1(O)C(=O)OCc2c1cc1n(c2=O)Cc2c-1nc1cc(F)c(C)c3c1c2[C@H]([C@@H](CCO)N(C)C)CC3 (single isomer, unassigned) [Compound 15-99]	58	208	0.32	14.9	8.5						
CC[C@@]1(O)C(=O)OCc2c1cc1n(c2=O)Cc2c-1nc1cc(F)c(C)c3c1c2[C@@H]([C@@H](N)CO)CC3 (single isomer, unassigned) [Compound 16-102, hydrochloride]	142	105	27.7		0.02						
CC[C@@]1(O)C(=O)OCc2c1cc1n(c2=O)Cc2c-1nc1cc(F)c(C)c3c1c2[C@@H]([C@H](N)CO)CC3 (single isomer, unassigned) [Compound 16-105, hydrochloride]	> 145	112	10.2	0.07	0.06						
CC[C@@]1(O)C(=O)OCc2c1cc1n(c2=O)Cc2c-1nc1cc(F)c(C)c3c1c2[C@H]([C@@H](N)CO)CC3 (single isomer, unassigned) [Compound 16-108, hydrochloride]	110	126	8.3		0.002						
CC[C@@]1(O)C(=O)OCc2c1cc1n(c2=O)Cc2c-1nc1cc(F)c(C)c3c1c2[C@H]([C@H](N)CO)CC3 (single isomer, unassigned) [Compound 16-111, hydrochloride]	103	133	17.6	0.03	0.04						
CC[C@@]1(O)C(=O)OCc2c1cc1n(c2=O)Cc2c-1nc1cc(F)c(C)c3c1c2[C@@H]([C@H](CO)NC(C)C)CC3 (single isomer, unassigned) [Compound 17-112]	62	> 217	17	14.4	6.3						
CC[C@@]1(O)C(=O)OCc2c1cc1n(c2=O)Cc2c-1nc1cc(F)c(C)c3c1c2[C@@H]([C@@H](CO)NC(C)C)CC3 (single isomer, unassigned) [Compound 17-113]	32	145	4.2	26.9	9.7						
CC[C@@]1(O)C(=O)OCc2c1cc1n(c2=O)Cc2c-1nc1cc(F)c(C)c3c1c2[C@H]([C@H](CO)NC(C)C)CC3 (single isomer, unassigned) [Compound 17-114]	2.1	48	1.9	18.3	8						
CC[C@@]1(O)C(=O)OCc2c1cc1n(c2=O)Cc2c-1nc1cc(F)c(C)c3c1c2[C@H]([C@@H](CO)NC(C)C)CC3 (single isomer, unassigned) [Compound 17-115]	6	90	16	10.5	4.8						
CC[C@@]1(O)C(=O)OCc2c1cc1n(c2=O)Cc2c-1nc1cc(F)c(C)c3c1c2[C@@H](NC(=O)CO)CC3 [Dxd, reference compound]						100	>217	0.95			
CC[C@@]1(O)C(=O)OCc2c1cc1n(c2=O)Cc2c-1nc1cc(F)c(C)c3c1c2[C@@H](N)CC3 [Exatecan]	75		0.4	> 107					143	16.3	
CCc1c2c(nc3ccc(O)cc13)-c1cc3c(c(=O)n1C2)COC(=O)[C@]3(O)CC [SN-38, reference compound]						81	77	0.92			
Adalimumab											low shift
